Measured values reported in patent US4393228A, “Epoxysuccinic acid derivatives” (Taisho Pharmaceutical Co., Ltd., priority 1977, dated 1983).

Each compound was assayed against T1, papain (Carica papaya, UniProt P00784) (assay: Papain inhibitory activity (milk casein digestion)). Settings: papain 80 μg/ml 0.5 ml, cysteine, pH 6.8, 1% milk casein, 40° C., 10 minutes.
T1 construct: purchased Sigma Chem. Co
T1 sequence (P00784 134-345): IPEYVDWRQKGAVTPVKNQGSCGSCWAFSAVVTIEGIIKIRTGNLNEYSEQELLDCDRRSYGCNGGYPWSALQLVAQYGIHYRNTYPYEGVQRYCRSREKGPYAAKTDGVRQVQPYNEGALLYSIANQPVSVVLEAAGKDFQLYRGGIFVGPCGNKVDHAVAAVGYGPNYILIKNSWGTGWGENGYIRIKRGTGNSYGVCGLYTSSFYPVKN
Type: biochemical
Procedure: Papain inhibitory activity of the compounds of this invention was assayed as follows: To 0.5 ml of a solution of papain (80 μg/ml, Sigma Chem. Co., 2x cry.), were added 0.25 ml of 40 mM cysteine dissolved in 20 mM disodium ethylenediamine tetraacetic acid solution adjusted pH to 6.8 with sodium hydroxide and 0.25 ml of 33 mM phosphate buffer (pH 6.8) with or without inhibitor. After incubation at 40° C. for 15 minutes, the resulting mixture was added to 5 ml of 1% milk casein solution in the same buffer as described above, and further incubated at 40° C. for 10 minutes. Then the mixture was mixed with 5 ml of 0.44 M trichloroacetic acid solution and followed by filtration with a sheet of Toyo filter paper No. 4. The extinction of the filtrate was read at 280 nm. The percent inhibition was calculated from the formula, 100 x (B-A)/B; wherein B stands for the absorbance without inhibitor and A for the absorbance with inhibitor. The compound Nos. in Table 1 are as defined in Examples as described hereinafter.
With `O=C(OCCCCC1CCCCC1)[C@@H]1O[C@H]1C(=O)OCCCCC1CCCCC1` (relative stereo) [EP-67, di-4-cyclohexanebutyl epoxysuccinate] the “ID50 (amount of inhibitor for 50% inhibition)” value was 93.28 γ.
For `O=C(NCCCC[C@H](NC(=O)C1OC1C(=O)OC1CC1)C(=O)OCc1ccccc1)OCc1ccccc1` (stereo partly drawn) [EP-204, N^α -(3-cyclopropyloxycarbonyloxirane-2-carbonyl)-N^ε-carbobenzoxy-L-lysine benzyl ester], the “ID50 (amount of inhibitor for 50% inhibition)” value was 15.20 γ.
`O=C(O)[C@H]1O[C@@H]1C(=O)OCc1ccc(Cl)cc1Cl` (relative stereo) [EP-118, 2',4'-dichlorobenzyl potassium epoxysuccinate] was tested, and the “ID50 (amount of inhibitor for 50% inhibition)” value was 0.11 γ.
With `O=C(OCc1ccc(Br)cc1)[C@@H]1O[C@H]1C(=O)OCc1ccc(Br)cc1` (relative stereo) [EP-113, di-p-bromobenzyl epoxysuccinate] the “ID50 (amount of inhibitor for 50% inhibition)” value was 0.99 γ.
`CCCCOC(=O)[C@H](CCCNC(=O)OCc1ccccc1)NC(=O)C1OC1C(=O)[O-].[K+]` (stereo partly drawn) [EP-199, N^α -(3-carboxyoxirane-2-carbonyl)-N^δ -carbobenzoxy-L-ornithine n-butyl ester potassium salt] was tested, and the “ID50 (amount of inhibitor for 50% inhibition)” value was 0.14 γ.
In the case of `Cc1cc(C)c(COC(=O)[C@@H]2O[C@H]2C(=O)O)c(C)c1` (relative stereo) [EP-96, 2',4',6'-trimethylbenzyl potassium epoxysuccinate], the “ID50 (amount of inhibitor for 50% inhibition)” value is reported as 0.37 γ.
In the case of `O=C(OC1CCCCCCC1)[C@@H]1O[C@H]1C(=O)OC1CCCCCCC1` (relative stereo) [EP-35, dicyclooctyl epoxysuccinate], the “ID50 (amount of inhibitor for 50% inhibition)” value is reported as 0.98 γ.
`O=C(O)[C@@H]1O[C@H]1C(=O)OCCCCC1CCCCC1` (relative stereo) [EP-68, 4-cyclohexanebutyl potassium epoxysuccinate] was tested, and the “ID50 (amount of inhibitor for 50% inhibition)” value was 0.10 γ.
In the case of `CCOC(=O)C1OC1C(=O)N[C@@H](CCC(=O)OCc1ccccc1)C(=O)OCc1ccccc1` (stereo partly drawn) [EP-156, N-(3-ethoxycarbonyloxirane-2-carbonyl)-L-glutamic acid dibenzyl ester], the “ID50 (amount of inhibitor for 50% inhibition)” value is reported as 13.80 γ.
With `O=C(O)C1OC1C(=O)OC1CC(Cl)CC(Cl)C1` (stereo not drawn) [EP-24, 3',5'-trans-dichlorocyclohexyl potassium epoxysuccinate] the “ID50 (amount of inhibitor for 50% inhibition)” value was 0.09 γ.
In the case of `O=C(OCc1ccc(I)cc1Br)[C@H]1O[C@@H]1C(=O)OCc1ccc(I)cc1Br` (relative stereo) [EP-119, di-2'-bromo-4'-iodobenzyl epoxysuccinate], the “ID50 (amount of inhibitor for 50% inhibition)” value is reported as 3.00 γ.
`C=CCOC(=O)C1OC1C(=O)N[C@@H](CCCCNC(=O)OCc1ccccc1)C(=O)OCc1ccccc1` (stereo partly drawn) [EP-164, N^α -(3-allyloxycarbonyloxirane-2-carbonyl)-N^ε -carbobenzoxy-L-lysine benzyl ester] was tested, and the “ID50 (amount of inhibitor for 50% inhibition)” value was 20.49 γ.
For `Cc1ccccc1COC(=O)[C@@H]1O[C@H]1C(=O)O` (relative stereo) [EP-92, o-methylbenzyl potassium epoxysuccinate], the “ID50 (amount of inhibitor for 50% inhibition)” value was 0.10 γ.
With `O=C(OCc1ccc(Cl)cc1)[C@@H]1O[C@H]1C(=O)OCc1ccc(Cl)cc1` (relative stereo) [EP-115, di-p-chlorobenzyl epoxysuccinate] the “ID50 (amount of inhibitor for 50% inhibition)” value was 1.20 γ.
In the case of `O=C(OC1CC2CCC1CC2)[C@@H]1O[C@H]1C(=O)OC1CC2CCC1CC2` (relative stereo) [EP-51, dibicyclo [2,2,2] octyl epoxysuccinate], the “ID50 (amount of inhibitor for 50% inhibition)” value is reported as 0.30 γ.
In the case of `O=C(O)[C@H]1O[C@@H]1C(=O)OCc1cccc(Cl)c1` (relative stereo) [EP-110, m-chlorobenzyl potassium epoxysuccinate], the “ID50 (amount of inhibitor for 50% inhibition)” value is reported as 0.24 γ.
For `CC(C)C[C@H](NC(=O)C1OC1C(=O)OC1CCCC1Br)C(=O)OCc1ccccc1` (stereo partly drawn) [EP-214, N-[3-(2'-trans-bromocyclopentyloxy)-carbonyloxirane-2-carbonyl]-L-leucine benzyl ester], the “ID50 (amount of inhibitor for 50% inhibition)” value was 0.13 γ.
In the case of `O=C(O)[C@@H]1O[C@H]1C(=O)OC1C2CC3CC(C2)CC1C3` (relative stereo) [EP-38, 2-adamantyl potassium epoxysuccinate], the “ID50 (amount of inhibitor for 50% inhibition)” value is reported as 0.06 γ.
`O=C(OCc1cccc(Cl)c1)[C@@H]1O[C@H]1C(=O)OCc1cccc(Cl)c1` (relative stereo) [EP-109, di-m-chlorobenzyl epoxysuccinate] was tested, and the “ID50 (amount of inhibitor for 50% inhibition)” value was 0.50 γ.
With `Cc1cccc(COC(=O)[C@@H]2O[C@H]2C(=O)O)c1Br` (relative stereo) [EP-98, 2'-bromo-3'-methylbenzyl potassium epoxysuccinate] the “ID50 (amount of inhibitor for 50% inhibition)” value was 0.32 γ.
For `O=C(NCCCC[C@H](NC(=O)C1OC1C(=O)[O-])C(=O)OCc1ccccc1)OCc1ccccc1.[K+]` (stereo partly drawn) [EP-197, N^α -(3-carboxyoxirane-2-carbonyl)-N^ε -carbobenzoxy-L-lysine benzyl ester potassium salt], the “ID50 (amount of inhibitor for 50% inhibition)” value was 0.98 γ.
In the case of `O=C(OC1CCC(Br)C(Cl)C1)C1OC1C(=O)OC1CCC(Br)C(Cl)C1` (stereo not drawn) [EP-21, di-3'-cis-chloro-trans-4'-bromocyclohexyl epoxysuccinate], the “ID50 (amount of inhibitor for 50% inhibition)” value is reported as 2.46 γ.
For `CCOC(=O)C1OC1C(=O)N[C@@H](CCCCN)C(=O)O` (stereo partly drawn) [EP-201, N-(3-ethoxycarbonyloxirane-2-carbonyl)-L-lysine], the “ID50 (amount of inhibitor for 50% inhibition)” value was 25.51 γ.
With `O=C(O)[C@@H]1O[C@H]1C(=O)OCCC1CCCCC1` (relative stereo) [EP-62, 2-cyclohexaneethyl potassium epoxysuccinate] the “ID50 (amount of inhibitor for 50% inhibition)” value was 0.08 γ.
`COC(=O)[C@H](CCCNC(=N)N)NC(=O)C1OC1C(=O)O` (stereo partly drawn) [EP-200, N-(3-carboxyoxirane-2-carbonyl)-L-arginine methyl ester] was tested, and the “ID50 (amount of inhibitor for 50% inhibition)” value was 0.88 γ.
For `Cc1cccc2c(COC(=O)[C@@H]3O[C@H]3C(=O)OCc3ccc(C)c4c(C)cccc34)ccc(C)c12` (relative stereo) [EP-87, di-4',5'-dimethyl-1'-naphthylmethyl epoxysuccinate], the “ID50 (amount of inhibitor for 50% inhibition)” value was 1.58 γ.
With `O=C(OC1CCC(Cl)C1)C1OC1C(=O)OC1CCC(Cl)C1` (stereo not drawn) [EP-29, di-3'-cis-chlorocyclopentyl epoxysuccinate] the “ID50 (amount of inhibitor for 50% inhibition)” value was 3.12 γ.
In the case of `O=C(OCc1ccc(Cl)cc1Cl)[C@H]1O[C@@H]1C(=O)OCc1ccc(Cl)cc1Cl` (relative stereo) [EP-117, di-2',4'-dichlorobenzyl epoxysuccinate], the “ID50 (amount of inhibitor for 50% inhibition)” value is reported as 2.55 γ.
With `CC1CCC(OC(=O)C2OC2C(=O)OC2CCC(C)C2)C1` (stereo not drawn) [EP-31, di-3'-trans-methylcyclopentyl epoxysuccinate] the “ID50 (amount of inhibitor for 50% inhibition)” value was 3.25 γ.
With `O=C(O)[C@@H]1O[C@H]1C(=O)OC1CC1` (relative stereo) [EP-28, cyclopropyl potassium epoxysuccinate] the “ID50 (amount of inhibitor for 50% inhibition)” value was 0.80 γ.
In the case of `CC1CCCC(C)C1OC(=O)C1OC1C(=O)O` (stereo not drawn) [EP-14, 2',6'-trans-dimethylcyclohexyl potassium epoxysuccinate], the “ID50 (amount of inhibitor for 50% inhibition)” value is reported as 0.10 γ.
With `O=C(OC1CC(Cl)CCC1Br)C1OC1C(=O)OC1CC(Cl)CCC1Br` (stereo not drawn) [EP-11, di-2'-cis-bromo-5'-trans-chlorocyclohexyl epoxysuccinate] the “ID50 (amount of inhibitor for 50% inhibition)” value was 2.50 γ.
With `O=C(OC1CC1)[C@@H]1O[C@H]1C(=O)OC1CC1` (relative stereo) [EP-27, dicyclopropyl epoxysuccinate] the “ID50 (amount of inhibitor for 50% inhibition)” value was 20.00 γ.
In the case of `COC(=O)[C@H]1O[C@@H]1C(=O)O` (relative stereo) [EP-135, methyl hydrogen epoxysuccinate], the “ID50 (amount of inhibitor for 50% inhibition)” value is reported as 12.20 γ.
For `CC(OC(=O)C1OC1C(=O)OC(C)C1CCCC1)C1CCCC1` (centres unmarked) [EP-45, di-1-cyclopentaneethyl epoxysuccinate], the “ID50 (amount of inhibitor for 50% inhibition)” value was 0.23 γ.
With `O=C(CNC(=O)C1OC1C(=O)OC1CCCC1Cl)OCc1ccccc1` (stereo not drawn) [EP-213, N-[3-(2'-cis-chlorocyclopentyloxy)-carbonyloxirane-2-carbonyl]-glycine benzyl ester] the “ID50 (amount of inhibitor for 50% inhibition)” value was 6.75 γ.
For `C[C@H]1CCCC[C@H]1OC(=O)[C@@H]1O[C@H]1C(=O)O` (relative stereo) [EP-4, 2'-cis-methylcyclohexyl potassium epoxysuccinate], the “ID50 (amount of inhibitor for 50% inhibition)” value was 0.09 γ.
In the case of `O=C(O)[C@H]1O[C@@H]1C(=O)OCCc1ccccc1` (relative stereo) [EP-130, 2'-phenylethyl potassium epoxysuccinate], the “ID50 (amount of inhibitor for 50% inhibition)” value is reported as 0.10 γ.
`CCOC(=O)C1OC1C(=O)N[C@@H](C)C(=O)OC(C)(C)C` (stereo partly drawn) [EP-192, N-(3-ethoxycarbonyloxirane-2-carbonyl)-L-alanine-t-butyl ester] was tested, and the “ID50 (amount of inhibitor for 50% inhibition)” value was 40.50 γ.
`O=C(O[C@@H]1CCC[C@H]1Br)[C@@H]1O[C@H]1C(=O)O[C@@H]1CCC[C@H]1Br` (relative stereo) [EP-33, di-2'-trans-bromocyclopentylepoxysuccinate] was tested, and the “ID50 (amount of inhibitor for 50% inhibition)” value was 3.20 γ.
`O=C(O)[C@H]1O[C@@H]1C(=O)OCc1ccccc1I` (relative stereo) [EP-106, o-iodobenzyl potassium epoxysuccinate] was tested, and the “ID50 (amount of inhibitor for 50% inhibition)” value was 0.14 γ.
